Measurements as given in patent US20260191863A1, “PYRROLOPYRIMIDINE COMPOSITIONS FOR TREATMENT OF ITK MEDIATED CONDITIONS” (ACLARIS THERAPEUTICS, INC., priority 2022, published 2026).
Where “and” joins values, the source holds several entries; their conditions need not be identical. Identical values can stand only once. Like-named read-outs stand apart in the source and are kept apart here.

Columns and labels:
ITK (IFNγ mRNA) = assay: SAD ex vivo PD: αCD3/αCD28 stimulated IFNγ mRNA production; format: in vivo; conditions: Homo sapiens; SAD study; read-out: Clinical EC50
From the text: (§1) Secondary Endpoints—Compound I plasma concentrations. Mean change from baseline in ex vivo stimulated pSTAT5 and pSTAT1 (signal transducer and activator of transcription); and in ex vivo stimulated IFNγ mRNA (interferon gamma messenger ribonucleic acid).
(§2) Summary of SAD data: FIGS. 4-8 and 9-13 show the SAD dose response, SAD exposure response, and SAD calculated response at Cmax by dose respectively for ITK (IL2 mRNA), ITK (IFNγ mRNA), JAK3 (pSTAT5, lymph), JAK3 (pSTAT5, CD3′ T), and ITK & JAK (IFNγ protein). Clinical and pre-clinical IC50 data for ITK (IL2 mRNA), ITK (IFNγ mRNA), JAK3 (pSTAT5, lymph), JAK3 (pSTAT5, CD3^+ T), and ITK & JAK (IFNγ protein) from the SAD study is shown in table 4.

JAK3 (pSTAT5, CD3+ T) = assay: SAD ex vivo PD: IL2 stimulated pSTAT5 in CD3+ T cells; conditions: Homo sapiens, T-cell; SAD study; read-out: Clinical EC50
From the text: as §1, §2

ITK & JAK (IFNγ protein) = assay: SAD ex vivo PD: αCD3/IL15 stimulated IFNγ protein production; format: in vivo, human; conditions: for EC50: Homo sapiens; for Inhibition of dual ITK and JAK3-stimulated IFNγ protein production: SAD higher dose cohorts
From the text: as §2

ITK (IL2 mRNA) = assay: Pre-clinical human whole blood αCD3/28/IL-2 mRNA (2 hr); format: cell-based
[1] = Phase 1 MAD study: safety and tolerability; format: in vivo, human; conditions: for AE of Special Interest (events) / AEs (events) / ≥Grade 2 (events): 14 days
From the text: Primary Endpoints—Number and percent of adverse events (AEs) and serious adverse events (SAEs); mean change from baseline in laboratory values, vital signs, and electrocardiograms (ECGs).
Overall Design—This was a randomized, Investigator and participant-blind. Sponsor-unblinded, placebo-controlled study designed to evaluate the safety, tolerability, PK, and PD of Compound I in healthy participants. The study consisted of multiple cohorts assessing ascending doses of Compound I.
Approximately 60 participants were enrolled into 5 cohorts. At each dose level/cohort, a total of 10 participants were randomized to receive 2 weeks of oral doses of Compound I (n=8) or placebo (n=2). In Cohort 3, 20 participants were randomized to receive multiple oral doses of Compound I QD (n=8), Compound I TID (n=8), placebo QD (n=2), or placebo TID (n=2).
The study started with a planned dose of 5 mg twice daily (BID). Escalation to the next higher cohort was dependent on safety and PK data from all participants in the previous cohorts and was based on data from at least 6 participants up to at least 48 hours after the last dose. In no instance did the dose escalation steps exceed 3-fold the prior dose level.

[2] = system: αCD3 & IL15 stimulated IFNγ protein; assay: MAD ex vivo PD: αCD3 & IL15 stimulated IFNγ protein; format: in vivo, human
From the text: Exploratory Endpoints—Mean change from baseline in cellular, extracellular (secreted), and/or message markers of inflammation.
EC50 and IC50 data for αCD3 & αCD28 stimulated IL2mRNA, IL15 stimulated IFNγ protein, and αCD3 & IL15 stimulated IFNγ protein is shown in table 9.

JAK1/2 = assay: Cell IC50 JAK1/2 hPBMC IFNγ/pSTAT1; format: cell-based, human
JAK2 = target: T1, JAK2 (Homo sapiens, UniProt O60674); assay: Cell IC50 JAK2; format: cell-based
T1 construct: endogenous in cells
T1 sequence (O60674 whole entry): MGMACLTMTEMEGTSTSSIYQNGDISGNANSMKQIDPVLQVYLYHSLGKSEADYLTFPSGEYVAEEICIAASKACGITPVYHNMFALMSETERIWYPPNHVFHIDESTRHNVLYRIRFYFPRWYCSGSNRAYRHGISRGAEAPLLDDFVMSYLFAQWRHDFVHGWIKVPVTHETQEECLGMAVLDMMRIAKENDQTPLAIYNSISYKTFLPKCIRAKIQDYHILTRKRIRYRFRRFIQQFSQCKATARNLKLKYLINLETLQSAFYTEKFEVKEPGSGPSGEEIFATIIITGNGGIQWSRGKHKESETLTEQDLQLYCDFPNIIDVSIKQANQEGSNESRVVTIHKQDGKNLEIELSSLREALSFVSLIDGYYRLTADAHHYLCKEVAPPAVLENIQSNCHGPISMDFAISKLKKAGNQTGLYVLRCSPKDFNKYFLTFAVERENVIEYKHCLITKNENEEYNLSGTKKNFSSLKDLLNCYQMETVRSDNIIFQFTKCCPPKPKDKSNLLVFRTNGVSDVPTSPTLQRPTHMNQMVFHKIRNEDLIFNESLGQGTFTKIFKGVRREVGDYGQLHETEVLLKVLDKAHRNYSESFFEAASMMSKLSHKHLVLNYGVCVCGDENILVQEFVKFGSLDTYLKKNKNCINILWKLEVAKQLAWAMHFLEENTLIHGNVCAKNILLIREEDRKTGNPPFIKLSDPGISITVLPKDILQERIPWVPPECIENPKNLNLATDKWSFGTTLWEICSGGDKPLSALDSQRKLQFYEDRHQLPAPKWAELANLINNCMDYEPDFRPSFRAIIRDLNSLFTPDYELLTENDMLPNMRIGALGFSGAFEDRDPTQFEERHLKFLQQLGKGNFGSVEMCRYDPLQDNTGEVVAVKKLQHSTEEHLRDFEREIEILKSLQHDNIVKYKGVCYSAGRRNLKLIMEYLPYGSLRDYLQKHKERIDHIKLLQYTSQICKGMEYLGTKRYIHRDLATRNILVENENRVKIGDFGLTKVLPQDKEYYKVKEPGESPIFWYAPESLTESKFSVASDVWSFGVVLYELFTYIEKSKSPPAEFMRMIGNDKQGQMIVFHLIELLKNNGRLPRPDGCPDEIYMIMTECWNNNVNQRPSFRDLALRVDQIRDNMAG

`C=CC(=O)N1C[C@H](Nc2ncnc3[nH]cc([C@H]4CC4(F)F)c23)CC[C@@H]1C` [Compound I, 1-((2S,5R)-5-((5-((R)-2,2-difluorocyclopropyl)-7H-pyrrolo[2,3-d]pyrimidin-4-yl)amino)-2-methylpiperidin-1-yl)prop-2-en-1-one] gave an EC50 (ITK (IFNγ mRNA)) of 12.7 nM, an EC50 (JAK3 (pSTAT5, CD3+ T)) of 110 nM and an EC50 (ITK & JAK (IFNγ protein); SAD study, read-out: Clinical EC50) of 7.3 nM. For the same compound, the EC50 (ITK & JAK (IFNγ protein); read-out: SAD EC50) was 0.0026 µg/mL and 7.3 nM, the “Inhibition of dual ITK and JAK3-stimulated IFNγ protein production” value (ITK & JAK (IFNγ protein)) was “Near complete inhibition” and the “Inhibition of dual ITK and JAK3-stimulated IFNγ protein production” value (ITK & JAK (IFNγ protein); maintained for 12 hours) was > 50%. The “Potency relative to Ritlecitinib, αCD3/28/IL-2 mRNA (2 hr)” value (ITK (IL2 mRNA)) was “(35 fold*)”, the IC50 (ITK (IL2 mRNA); Homo sapiens) was 0.0077 µg/mL and 21.3 nM and the EC50 (ITK (IL2 mRNA); Homo sapiens, 2 h, read-out: Human Whole Blood EC50, αCD3/28/IL-2 mRNA (2 hr)) was 21 nM. The EC50 (ITK (IL2 mRNA); Homo sapiens, read-out: Pre-clinical EC50) was 21.3 ± 4.3 nM, the “Deaths, serious AEs, discontinuations due to AEs” value ([1]; MAD) was “no deaths, serious AEs, or discontinuations due to AEs” and the “Safety and tolerability conclusion” value ([1]; MAD) was “safe and well tolerated”. The “Notable events: single episode of transient diarrhea” value ([1]; MAD 5 mg BID) was 2 subjects, the “Notable events: single dermatomal zoster rash 1 week after dosing ended” value ([1]; MAD 40 mg BID) was 1 subject and the “AE of Special Interest (events)” value ([1]; MAD cohort 5 mg BID) was 3. For the same compound, the “AEs (events)” value ([1]; MAD cohort 5 mg BID) was 9, the “≥Grade 2 (events)” value ([1]; MAD cohort 5 mg BID) was 1 and the “AE of Special Interest (events)” value ([1]; MAD cohort 10 mg TID) was 0. For the same compound, the “AEs (events)” value ([1]; MAD cohort 10 mg TID) was 3, the “≥Grade 2 (events)” value ([1]; MAD cohort 10 mg TID) was 0 and the “AE of Special Interest (events)” value ([1]; MAD cohort 15 mg BID) was 0. The “AEs (events)” value ([1]; MAD cohort 15 mg BID) was 0, the “≥Grade 2 (events)” value ([1]; MAD cohort 15 mg BID) was 0 and the “AE of Special Interest (events)” value ([1]; MAD cohort 25 mg BID) was 1. For the same compound, the “AEs (events)” value ([1]; MAD cohort 25 mg BID) was 4, the “≥Grade 2 (events)” value ([1]; MAD cohort 25 mg BID) was 0 and the “AE of Special Interest (events)” value ([1]; MAD cohort 30 mg QD) was 0. The “AEs (events)” value ([1]; MAD cohort 30 mg QD) was 3, the “≥Grade 2 (events)” value ([1]; MAD cohort 30 mg QD) was 0 and the “AE of Special Interest (events)” value ([1]; MAD cohort 40 mg BID) was 1. For the same compound, the “AEs (events)” value ([1]; MAD cohort 40 mg BID) was 4, the “≥Grade 2 (events)” value ([1]; MAD cohort 40 mg BID) was 1 and the Safety and tolerability ([1]; MAD, up to 2 weeks administration in HV) was “safe and tolerable”. For the same compound, the EC50 ([2]; Homo sapiens, read-out: MAD EC50) was 0.0041 µg/mL and 11.4 nM, the EC50 ([2]; human whole blood dual stimulation, read-out: Human Compound I Cp to reach HWB dual stim EC50 (MAD PD data)) was ≥ 3.47 ng/mL and the “Cell IC50, JAK1/2 hPBMC IFNγ/pSTAT1” value (JAK1/2) was “Inactive”. For the same compound, the “Cell IC50, JAK2” value (JAK2) was “Inactive”.
